≈ marks a conversion by molar mass, not a printed value. Some results are limits rather than exact numbers.

Consider 34 compounds from ChEMBL document CHEMBL4725382, “Uridine natural products: Challenging targets and inspiration for novel small molecule inhibitors” (Bioorg Med Chem, 2020).

Test [1] can be described thus: Inhibition of MraY in Staphylococcus aureus by fluorescence assay.
Test [2] has as its system Staphylococcus aureus. Briefly: Inhibition of MraY in Staphylococcus aureus at 1 mM by fluorescence assay relative to control.
Test [3] can be described thus: Inhibition of Campylobacter concisus phosphoglycosyl transferase Pg1C.
Test [4] relates to Mycobacterium tuberculosis. Nature of the test: Antimycobacterial activity against Mycobacterium tuberculosis H37Rv ATCC 27294 after 14 days by resazurin reduction microplate assay. As to conditions: H37Rv ATCC 27294, 336 h. The test is classed as functional. A general note: The colour change of resazurin is a common sign of viable cells or microbes.
Test [5] in a line: Inhibition of Campylobacter jejuni phosphoglycosyl transferase Pg1D.
A short description of test [6]: Inhibition of Clostridium difficile phosphoglycosyl transferase. Also noted: species or system Clostridioides difficile.

With `Cc1cn([C@H]2C[C@H](O)[C@@H](C[C@H](NCCCNC(=O)[C@H](CC(C)C)NC(=O)[C@H](CCCCN)NC(=O)N[C@H](C(=O)O)C(C)C)C(=O)O)O2)c(=O)[nH]c1=O`, the IC50 in test [1] was above 100 µM. The compound also displayed an inhibition in test [2] of 38%.

Turning to `CC(C)C[C@H](NC(=O)[C@H](CCCCN)NC(=O)N[C@H](C(=O)O)C(C)C)C(=O)NCCCN[C@@H](C[C@H]1O[C@@H](n2ccc(=O)[nH]c2=O)C[C@@H]1O)C(=O)O`, the IC50 in test [1] is 4.6 µM.

In test [3], `COc1ccc2cc(-c3cn(CC(=O)N[C@@H](CCC(=O)O)C(=O)NC[C@H]4O[C@@H](n5ccc(=O)[nH]c5=O)[C@H](O)[C@@H]4O)nn3)ccc2c1` had a 50% inhibitory concentration (IC50) of 116 µM.

`CC(C)C[C@H](NC(=O)N[C@@H](Cc1c[nH]c2ccccc12)C(=O)O)C(=O)N[C@H](C(=O)NC[C@H]1C[C@@H](O)[C@H](n2ccc(=O)[nH]c2=O)O1)[C@H](C)N(C)C(=O)[C@@H](N)CCCCN` registered an MIC50 in test [4] of 1.35 µM (≈ 1.1 µg/mL).

With `CC(C)C[C@H](NC(=O)N[C@@H](Cc1c[nH]c2ccccc12)C(=O)O)C(=O)N[C@H](C(=O)NC[C@H]1C[C@@H](O)[C@H](n2ccc(=O)[nH]c2=O)O1)[C@H](C)N(C)C(=O)[C@H](C)N`, the MIC50 in test [4] is 0.6 µM (≈ 0.453 µg/mL).

Regarding `CC(C)C[C@H](NC(=O)[C@H](CCCCN)NC(=O)N[C@H](C(=O)O)C(C)C)C(=O)NCCCN[C@@H](C[C@H]1O[C@@H](n2cc(F)c(=O)[nH]c2=O)[C@H](O)[C@@H]1O)C(=O)O`, the concentration for half-maximal inhibition (IC50) in test [1] was above 100 µM. Further, the inhibition in test [2] was found to be 40%.

In test [4], `CC(C)C[C@H](NC(=O)N[C@@H](Cc1c[nH]c2ccccc12)C(=O)O)C(=O)N[C@H](C(=O)NC[C@H]1C[C@@H](O)[C@H](n2ccc(=O)[nH]c2=O)O1)[C@H](C)N(C)C(=O)[C@@H](N)Cc1ccc2ccccc2c1` registered an MIC50 of 3 µM (≈ 2.65 µg/mL).

Consider `CC(C)C[C@H](NC(=O)[C@H](CCCCN)NC(=O)N[C@@H](C)C(=O)O)C(=O)NCCCN[C@@H](C[C@H]1O[C@@H](n2ccc(=O)[nH]c2=O)[C@H](O)[C@@H]1O)C(=O)O`, for which the concentration for half-maximal inhibition (IC50) in test [1] was 21 µM.

`C[C@@H]([C@H](NC(=O)[C@@H](NC(=O)N[C@@H](Cc1c[nH]c2ccccc12)C(=O)O)C1CCCCC1)C(=O)NC[C@H]1C[C@@H](O)[C@H](n2ccc(=O)[nH]c2=O)O1)N(C)C(=O)CN` registered an MIC50 in test [4] of 0.51 µM (≈ 0.392 µg/mL).

In test [1], `CC(C)C[C@H](NC(=O)[C@H](CCCCN)NC(=O)N[C@H](C(=O)O)C(C)C)C(=O)NCCCN[C@@H](C[C@H]1O[C@@H](n2ccc(=O)[nH]c2=O)[C@H](O)[C@@H]1O)C(=O)O` yielded a half-inhibitory concentration (IC50) of 2.5 µM.

As to `CCCCC[C@H](NC(=O)N[C@@H](Cc1c[nH]c2ccccc12)C(=O)O)C(=O)N[C@H](C(=O)NC[C@H]1C[C@@H](O)[C@H](n2ccc(=O)[nH]c2=O)O1)[C@H](C)N(C)C(=O)CN`, in test [4], the MIC50 stood at 0.51 µM (≈ 0.385 µg/mL).

In test [5], `O=C(Cn1cc(-c2cccc(F)c2)nn1)NC[C@H]1O[C@@H](n2ccc(=O)[nH]c2=O)[C@H](O)[C@@H]1O` yielded a half-inhibitory concentration (IC50) of 35 µM.

`C[C@@H]([C@H](NC(=O)[C@H](CCCCN)NC(=O)N[C@@H](Cc1c[nH]c2ccccc12)C(=O)O)C(=O)NC[C@H]1C[C@@H](O)[C@H](n2ccc(=O)[nH]c2=O)O1)N(C)C(=O)CN` yielded an MIC50 in test [4] of 0.7 µM (≈ 0.53 µg/mL).

Consider `CC(C)C[C@H](NC(=O)N[C@@H](Cc1c[nH]c2ccccc12)C(=O)O)C(=O)N[C@H](C(=O)NC[C@H]1C[C@@H](O)[C@H](n2ccc(=O)[nH]c2=O)O1)[C@H](C)N(C)C(=O)[C@@H](N)Cc1cccnc1`, for which the MIC50 in test [4] was 5.85 µM (≈ 4.87 µg/mL).

The compound `C[C@@H]([C@H](NC(=O)[C@H](Cc1ccccc1)NC(=O)N[C@@H](Cc1c[nH]c2ccccc12)C(=O)O)C(=O)NC[C@H]1C[C@@H](O)[C@H](n2ccc(=O)[nH]c2=O)O1)N(C)C(=O)CN` displayed an MIC50 in test [4] of 0.26 µM (≈ 0.202 µg/mL).

`C[C@@H]([C@H](NC(=O)[C@H](Cc1cccnc1)NC(=O)N[C@@H](Cc1c[nH]c2ccccc12)C(=O)O)C(=O)NC[C@H]1C[C@@H](O)[C@H](n2ccc(=O)[nH]c2=O)O1)N(C)C(=O)CN` returned an MIC50 in test [4] of 0.98 µM (≈ 0.761 µg/mL).

In test [4], `C[C@@H]([C@H](NC(=O)[C@H](CC1CCCCC1)NC(=O)N[C@@H](Cc1c[nH]c2ccccc12)C(=O)O)C(=O)NC[C@H]1C[C@@H](O)[C@H](n2ccc(=O)[nH]c2=O)O1)N(C)C(=O)CN` gave an MIC50 of 0.08 µM (≈ 0.0625 µg/mL).

Consider `C[C@@H](O)[C@H](NC(=O)N[C@@H](Cc1c[nH]c2ccccc12)C(=O)O)C(=O)N[C@H](C(=O)NC[C@H]1C[C@@H](O)[C@H](n2ccc(=O)[nH]c2=O)O1)[C@H](C)N(C)C(=O)CN`, for which the MIC50 in test [4] was 2.8 µM (≈ 2.04 µg/mL).

For `O=c1ccn([C@@H]2O[C@H](CNc3c(NCc4cccc(F)c4)c(=O)c3=O)[C@@H](O)[C@H]2O)c(=O)[nH]1`, in test [6], the IC50 came out at 174 µM.

In turn, `CC(C)[C@H](NC(=O)N[C@@H](CCCCN)C(=O)N[C@@H](C)C(=O)NCCCN[C@@H](C[C@H]1O[C@@H](n2ccc(=O)[nH]c2=O)[C@H](O)[C@@H]1O)C(=O)O)C(=O)O` registered an IC50 in test [1] of 95 µM.

For `C[C@@H]([C@H](NC(=O)[C@H](Cc1ccc(O)cc1)NC(=O)N[C@@H](Cc1c[nH]c2ccccc12)C(=O)O)C(=O)NC[C@H]1C[C@@H](O)[C@H](n2ccc(=O)[nH]c2=O)O1)N(C)C(=O)CN`, the MIC50 in test [4] was determined as 0.52 µM (≈ 0.412 µg/mL).

For `CC(C)C[C@H](NC(=O)N[C@@H](Cc1c[nH]c2ccccc12)C(=O)O)C(=O)N[C@H](C(=O)NC[C@H]1C[C@@H](O)[C@H](n2ccc(=O)[nH]c2=O)O1)[C@H](C)N(C)C(=O)[C@@H](N)CC1CCCCC1`, the MIC50 in test [4] amounted to 1 µM (≈ 0.838 µg/mL).

Regarding `C[C@@H]([C@H](NC(=O)[C@H](CCc1ccccc1)NC(=O)N[C@@H](Cc1c[nH]c2ccccc12)C(=O)O)C(=O)NC[C@H]1C[C@@H](O)[C@H](n2ccc(=O)[nH]c2=O)O1)N(C)C(=O)CN`, the MIC50 in test [4] was determined as 1.08 µM (≈ 0.853 µg/mL).

`CC(C)C[C@H](NC(=O)N[C@@H](Cc1c[nH]c2ccccc12)C(=O)O)C(=O)N[C@H](C(=O)NC[C@H]1C[C@@H](O)[C@H](n2ccc(=O)[nH]c2=O)O1)[C@H](C)N(C)C(=O)[C@@H](N)[C@@H](C)O` showed an MIC50 in test [4] of 1.35 µM (≈ 1.06 µg/mL).

`CC(C)C[C@H](NC(=O)N[C@@H](Cc1c[nH]c2ccccc12)C(=O)O)C(=O)N[C@H](C(=O)NC[C@H]1C[C@@H](O)[C@H](n2ccc(=O)[nH]c2=O)O1)[C@H](C)N(C)C(=O)[C@@H](N)CCCN` returned an MIC50 in test [4] of 0.95 µM (≈ 0.759 µg/mL).

In the case of `CC(C)C[C@H](NC(=O)N[C@@H](Cc1c[nH]c2ccccc12)C(=O)O)C(=O)N[C@H](C(=O)NC[C@H]1C[C@@H](O)[C@H](n2ccc(=O)[nH]c2=O)O1)[C@H](C)N(C)C(=O)[C@@H](N)C1CCCCC1`, the MIC50 in test [4] was determined as 1.1 µM (≈ 0.906 µg/mL).

On to `CC(C)C[C@H](NC(=O)N[C@@H](Cc1c[nH]c2ccccc12)C(=O)O)C(=O)N[C@H](C(=O)NC[C@H]1C[C@@H](O)[C@H](n2ccc(=O)[nH]c2=O)O1)[C@H](C)N(C)C(=O)[C@@H](N)CC(=O)O`, for which, in test [4], the MIC50 amounted to 9.8 µM (≈ 7.84 µg/mL).

`CC(C)[C@H](NC(=O)N[C@@H](Cc1c[nH]c2ccccc12)C(=O)O)C(=O)N[C@H](C(=O)NC[C@H]1C[C@@H](O)[C@H](n2ccc(=O)[nH]c2=O)O1)[C@H](C)N(C)C(=O)CN` gave an MIC50 in test [4] of 0.88 µM (≈ 0.64 µg/mL).

`O=C(O)CC[C@H](NC(=O)Cn1cc(-c2cccc(F)c2)nn1)C(=O)NC[C@H]1O[C@@H](n2ccc(=O)[nH]c2=O)[C@H](O)[C@@H]1O` registered an IC50 in test [3] of 72 µM.

Turning to `CC(C)C[C@H](NC(=O)[C@H](C)NC(=O)N[C@H](C(=O)O)C(C)C)C(=O)NCCCN[C@@H](C[C@H]1O[C@@H](n2ccc(=O)[nH]c2=O)[C@H](O)[C@@H]1O)C(=O)O`, the IC50 in test [1] worked out at 14 µM.

The compound `CC(C)C[C@H](NC(=O)[C@H](CCCCN)NC(=O)N[C@H](C(=O)O)C(C)C)C(=O)NCCCN[C@@H](C[C@H]1O[C@@H](N2CCC(=O)NC2=O)[C@H](O)[C@@H]1O)C(=O)O` had a 50% inhibitory concentration (IC50) in test [1] of 27 µM.

Regarding `C[C@@H]([C@H](NC(=O)[C@@H](NC(=O)N[C@@H](Cc1c[nH]c2ccccc12)C(=O)O)c1ccccc1)C(=O)NC[C@H]1C[C@@H](O)[C@H](n2ccc(=O)[nH]c2=O)O1)N(C)C(=O)CN`, the MIC50 in test [4] was above 6.26 µM.

Take `C[C@@H]([C@H](NC(=O)[C@H](Cc1c[nH]c2ccccc12)NC(=O)N[C@@H](Cc1c[nH]c2ccccc12)C(=O)O)C(=O)NC[C@H]1C[C@@H](O)[C@H](n2ccc(=O)[nH]c2=O)O1)N(C)C(=O)CN`: the MIC50 in test [4] was determined as 0.44 µM (≈ 0.359 µg/mL).

Regarding `CC(C)C[C@H](NC(=O)N[C@@H](Cc1c[nH]c2ccccc12)C(=O)O)C(=O)N[C@H](C(=O)NC[C@H]1C[C@@H](O)[C@H](n2ccc(=O)[nH]c2=O)O1)[C@H](C)N(C)C(=O)[C@@H](N)Cc1ccccc1`, the MIC50 in test [4] stood at 4.05 µM (≈ 3.37 µg/mL).

One may read the IC50 as the concentration that gives 50% inhibition. High values mean weaker potency in that assay, low ones greater potency in that assay. In general, inhibition refers to the relative decrease from the control value, in per cent. Low readings indicate a weak effect, high ones a strong effect. Usually MIC50 stands for an inhibitory concentration at the 50% level, which refers to growth in some studies and to a panel of isolates in others.
